{
  "source": "patent US10189881B2",
  "about": "“MPS peptides and use thereof” (The Regents of the University of California, priority 2013, dated 2019)",
  "key": {"A549 cells": {"tested_on": "A549 cells", "test": "MTS drug sensitivity of MARCKS-knockdown cells", "format": "cell-based, human", "conditions": "stable MARCKS-knockdown A549 cells versus control shRNA; 72 hours", "experimental": "(§1) FIGS. 10A and 10B show implication of phospho-MARCKS levels in drug resistance. (A) Effects of ectopic V5-tagged PSD-mutant or wild type MARCKS expression on CL1-0 cells in response to various drug treatments. (B) Effects of MARCKS shRNA silencing on A549 cells in response to various drug treatments. Western blot analyses were carried out to determine phospho-MARCKS and total MARCKS levels in these stable cells with appropriate antibodies. The cells were subjected to various doses of cisplatin, paclitaxel, erlotinib or dasatinib for treatment, as indicated. After 72 hours of treatment, cell viability was determinate by MTS assays. Data shown as mean±SD. *P<0.05 versus mock (A; n=3); *P<0.05 versus control shRNA (B; n=4).\nFor enforced expression of V5-tagged MARCKS in CL1-0, lung cancer cells were transfected with pcDNA3.1-MARCKS, pcDNA3.1-S159/163A MARCKS or pcDNA3.1 vector using lipofectamine reagent (Invitrogen), according to the manufacturer's protocol. After culturing in medium containing with 400 μg/mL of G418 (Invitrogen) for 2-3 weeks, individual clones were isolated. Clones that expressed the MARCKS cDNA coding region were maintained in medium containing 200 μg/mL of G418 and used for further investigation. Applicants also established a MARCKS-mixed knockdown stable A549 transfectant. […]"}, "[1]": {"test": "Tolerability upon systemic administration", "format": "in vivo", "conditions": "systemic administration in mice"}, "[2]": {"tested_on": "cancer cell lines (H1975, HCT116, H1650, CL1-5 and others)", "test": "MTS cell viability assay, cancer cell lines", "format": "cell-based", "conditions": "H1975, HCT116, H1650 and CL1-5 cells; 72 hours; listed as MPS peptide", "experimental": "Top, cells were incubated with various concentrations of MPS peptide for 72 hours and then subjected to a MTS assay for analysis of cell viability. Polyamine served as a peptide control. *, P<0.05 compared with untreated cells. The HBE1 cell line is a normal bronchial epithelial cell line. Bottom, ethnicities of the cancer cell lines used for MTS assay.\nFIGS. 13A-13G show MPS peptide suppresses cancer cell proliferation and also induces apoptosis in these cells through direct downregulation of MARCKS activation. (A) Determination of MARCKS phosphorylation levels after 24 hours of MPS peptide treatment. Lysates from 1-100 μM MPS peptide-treated H1975 cells were subjected to western blot analysis. (B) Levels of PIP3 in drug resistant cancer cell lines after MPS peptide treatment. Cells were treated with 10, 50 or 100 μM MPS peptide. After 24 hours of treatment, PIP3 lipids were extracted from these cells and analyzed by a PIP3 ELISA kit. *P<0.05 compared with untreated cells. […] (E) Cells were treated with the indicated concentrations of MPS peptide and colonies were counted after 10 days of treatment using crystal violet staining (F) MPS treatment augments cell death. […] The percentages of apoptotic cells were quantified by flow cytometry (top), and presented as mean±SD of three experiments (bottom). *, P<0.05 versus untreated cells (Con). […]"}, "[3]": {"tested_on": "lung cancer cells with low phospho-MARCKS levels", "test": "MTS cell viability, lung cancer cell lines with low phospho-MARCKS levels", "format": "cell-based, human", "conditions": "various concentrations, 72 hours", "experimental": "(§2) After 72 hours of peptide treatment, the number of viable cells was visualized by using crystal violet staining. A representative example of three independent experiments is shown. […] Cells were incubated with various concentrations of MPS peptide for 72 hours and then subjected to MTS assays. 200 μM polyamine and aspartates-substituted mutant (Mut) peptide served as peptide controls (n=3)."}, "[4]": {"tested_on": "normal human bronchial epithelial cells", "test": "Crystal violet staining of viable normal cells after peptide treatment", "format": "cell-based", "conditions": "50 μM or various concentrations; 72 hours", "experimental": "After 72 hours of peptide treatment, the number of viable cells was visualized by using crystal violet staining. A representative of three independent experiments.\nas §2"}, "CL1-0 cells": {"tested_on": "CL1-0 cells", "test": "MTS cell viability, drug treatment of mock transfected cells", "format": "cell-based, human", "conditions": "control mock transfected CL1-0 cells; increasing concentrations, 72 hours", "experimental": "as §1\nTo determine if the MARCKS phosphorylation step can serve as a therapeutic target, Applicants evaluated whether the status of MARCKS PSD phosphorylation could alter the sensitivity of NSCLC cells to chemotherapeutic agents and tyrosine kinase inhibitors (TKIs). The V5-tagged wild-type and PSD-mutated (S159/163A) MARCKS constructs were generated and transfected into low MARCKS-expressing CL1-0 cells (FIG. 16A) (Chen, C. H. et al. (2013) Oncogene) for establishing stable clones. These stable cell lines were exposed to increasing concentrations of cisplatin, paclitaxel, erlotinib or dasatinib for 72 hours. […] These toxicities were repressed by enforced expression of V5-tagged wild type MARCKS, but not by overexpression of the S159/163A mutant."}, "H1650 and H1975 cells": {"tested_on": "H1650 and H1975 cells", "conditions": "0.5 μM erlotinib alone; 48 hours", "protocol": "The combinatorial effect of MPS peptide with erlotinib on cancer cell lines. Two chemoresistant lung cancer cells, H1650 (Left) and H1975 (Right) cells were respectively co-treated with various dosages of erlotinib and 50 μM MPS peptide. After 48 hours, cell viability was determinate by MTS assay. *, P<0.05.\nTwo erlotinib resistant cell lines, H1975 (left) and H1650 (right), were co-treated with various dosages of erlotinib and 50 μM MPS peptide. After 48 hours, cell viability was determined by MTS assay. *, P<0.05.\nCells were seeded onto 96-well plates at a density of 5-10×10^3 cells per well and cultured for the indicated treatment. Cell viability was evaluated using a MTS assay kit (Promega, Madison, Wis.). Twenty microliters of the combined MTS/PMS solution was added into each well, incubated for 3 hours at 37° C., and the absorbance was measured at 490 nm by using an ELISA reader."}, "[5]": {"tested_on": "MARCKS phosphorylation (Ser159/163)", "test": "Western blot of MARCKS phosphorylation in peptide-treated cells", "format": "cell-based, human", "conditions": "100 μM peptide, 24 hours, H1650 or H1975 cells", "experimental": "The levels of MARCKS phosphorylation in chemoresistant cancer cell lines after 24 hours of MPS or mutant (Mut) peptide treatment. Lysates form 100 μM MPS-or Mut peptide-treated H1650 or H1975cells were subjected to immunoblotting. The sequences of MARCKS MPS peptide consisted of amino acids 152 to 176 from the wild-type protein (SEQ ID NO: 9). The sequences of mutated MPS peptide (Mut) (SEQ ID NO: 14) had the replacement of serine residues (S) by aspartate (D) and are unable to be recognized by PKC. The underline represents the PIP2 binding site.\nFIGS. 13A-13G show MPS peptide suppresses cancer cell proliferation and also induces apoptosis in these cells through direct downregulation of MARCKS activation. (A) Determination of MARCKS phosphorylation levels after 24 hours of MPS peptide treatment. Lysates from 1-100 μM MPS peptide-treated H1975 cells were subjected to western blot analysis. (B) Levels of PIP3 in drug resistant cancer cell lines after MPS peptide treatment. Cells were treated with 10, 50 or 100 μM MPS peptide. After 24 hours of treatment, PIP3 lipids were extracted from these cells and analyzed by a PIP3 ELISA kit. *P<0.05 compared with untreated cells. (C) Downregulation of AKT phosphorylation by MPS peptide treatment, but not by Mut peptide. Cells were treated with 100 μM MPS or Mut peptide for 24 hours. Lysates were immunoblotted with the indicated antibodies. (D) Cell viability analysis of six cancer cell lines and human bronchial epithelial cells (HBE1) upon MPS treatment. Cells were incubated with various concentrations of MPS peptide for 72 hours and then subjected to MTS assays. Polylysine served as a peptide control. n=4, *P<0.05 compared with untreated cells (Con). (E) Cells were treated with the indicated concentrations of MPS peptide and colonies were counted after 10 days of treatment using crystal violet staining (F) MPS treatment augments cell death. […] The percentages of apoptotic cells were quantified by flow cytometry (top), and presented as mean±SD of three experiments (bottom). *, P<0.05 versus untreated cells (Con). […]"}, "H1975 cells": {"tested_on": "H1975 cells", "test": "Subcutaneous H1975 xenograft, peptide treatment", "format": "in vivo, nude mice", "conditions": "i.p., 28 mg/kg every three days for 7 injections", "experimental": "FIGS. 14A-14F show suppressive effects of MPS peptide on cancer growth and metastasis in vivo. (A-C) Suppression of tumorigenesis by MPS peptide. Nude mice bearing subcutaneous tumors were treated for 21 days with intraperitoneal injections of PBS, Mut or MPS peptide at the dosage of 28 mg/kg/3 days. Tumor appearance and volumes were measured and data was presented as mean±SD (n=5, A). A representative photo of primary tumors from subcutaneous tissue of nude mice was shown (B, left). The tumor weights were average values from five mice per group and data were shown as mean±SE (B, right). * P<0.05 as compared with PBS group. […] Top, a representative photo of primary tumors from subcutaneous tissue of nude mice. Bottom, tumor weights are average values from six mice per group. Data were shown as mean±SE. *P<0.01 as compared to PBS-treated group. (E) Inhibition of lung cancer metastasis by MPS peptide. Dissociated PC9 cells were orthotopically injected into the left lobe of the mouse lung. […] (F) Quantification of the average pulmonary metastasis nodules from mice with injected cancer cells and treated with […] or MPS peptide as described (*P<0.05 versus PBS).\nTo determine the anti-cancer effect of the MPS peptide in vivo, H1975 cells were injected subcutaneously into nude mice. […] After treatment for 21 days, the animals were sacrificed to evaluated tumor weights."}},
  "note": "Entries after “also recorded” stand apart in the source; their conditions may differ. Peptide text beside a SMILES is read from it.",
  "data": [
    {"compound": "5′-GAGCGCTTCTCCTTCAAGAA-3′ (expressed or natural sequence) [MARCKS shRNA-c, common MARCKS-specific short hairpin RNA]", "values": [
      {"measurement": "Sensitivity to cisplatin, paclitaxel, erlotinib, dasatinib", "setting": "A549 cells", "result": "enhanced sensitivity to these drugs"}
    ]},
    {"compound": "CC(C)C[C@H](NC(=O)[C@H](CCCCN)NC(=O)[C@H](Cc1ccccc1)NC(=O)[C@H](CO)NC(=O)[C@H](CCCCN)NC(=O)[C@H](CCCCN)NC(=O)[C@H](Cc1ccccc1)NC(=O)[C@H](CO)NC(=O)[C@H](Cc1ccccc1)NC(=O)[C@H](CCCNC(=N)N)NC(=O)[C@H](CCCCN)NC(=O)[C@H](CCCCN)NC(=O)[C@H](CCCCN)NC(=O)[C@H](CCCCN)NC(=O)[C@@H](N)CCCCN)C(=O)N[C@@H](CO)C(=O)NCC(=O)N[C@@H](Cc1ccccc1)C(=O)N[C@@H](CO)C(=O)N[C@@H](Cc1ccccc1)C(=O)N[C@@H](CCCCN)C(=O)N[C@@H](CCCCN)C(=O)N[C@@H](CC(N)=O)C(=O)N[C@@H](CCCCN)C(=O)N[C@@H](CCCCN)C(=O)O", "note": "[MPS] (H-KKKKKRFSFKKSFKLSGFSFKKNKK-OH)", "values": [
      {"measurement": "Tolerability", "setting": "[1]", "result": "well tolerated upon systemic administration in mice"},
      {"measurement": "Cytotoxic / anti-proliferative effect on TKIs resistant cancer cells", "setting": "[2]", "result": "cytotoxicity effect of MPS peptide is obvious; also recorded: obvious anti-proliferative effect"},
      {"measurement": "Cytotoxicity in lung cancer cells with low phospho-MARCKS levels", "setting": "[3]", "result": "did not observe any cytotoxicity"},
      {"measurement": "Cytotoxicity in normal human bronchial epithelial cells", "setting": "[4]", "result": "did not observe any cytotoxicity"}
    ]},
    {"compound": "N.N.[Cl][Pt][Cl]", "note": "[cisplatin]", "values": [
      {"measurement": "Cell viability", "setting": "CL1-0 cells", "result": "dose-dependent decrease of cell viability"}
    ]},
    {"compound": "C#Cc1cccc(Nc2ncnc3cc(OCCOC)c(OCCOC)cc23)c1", "note": "[erlotinib]", "values": [
      {"measurement": "Cell viability", "setting": "CL1-0 cells", "result": "dose-dependent decrease of cell viability"},
      {"measurement": "Cell viability compared to untreated cells", "setting": "H1650 and H1975 cells", "result": "no significant decrease in cell viability"}
    ]},
    {"compound": "CC(=O)O[C@H]1C(=O)[C@@]2(C)[C@H]([C@H](OC(=O)c3ccccc3)[C@]3(O)C[C@H](OC(=O)[C@H](O)[C@@H](NC(=O)c4ccccc4)c4ccccc4)C(C)=C1C3(C)C)[C@]1(OC(C)=O)CO[C@@H]1C[C@@H]2O", "note": "[paclitaxel]", "values": [
      {"measurement": "Cell viability", "setting": "CL1-0 cells", "result": "dose-dependent decrease of cell viability"}
    ]},
    {"compound": "KKKKKRFDFKKDFKLDGFDFKKNKK [Mut, aspartates-substituted mutant MPS peptide used as control]", "values": [
      {"measurement": "Suppression of p-MARCKS", "setting": "[5]", "result": "no suppression"},
      {"measurement": "Suppression of p-MARCKS", "setting": "[5]; listed as Mut peptide", "result": "not in Mut peptide-treated cells"},
      {"measurement": "Tumor size", "setting": "H1975 cells", "result": "continuous growth"}
    ]}
  ]
}
